Structures can show the parent of a compound that is named as a salt.
What was measured:
SARS-CoV-2 3CL^pro [1] = target: T1, SARS-CoV-2 3CL^pro (Severe acute respiratory syndrome coronavirus 2, UniProt P0DTD1); test: Enzymatic inhibition assay of SARS-CoV-2 3CLpro by FRET; assay type: biochemical; conditions: for inhibitory activity against SARS-CoV-2 3CL^pro (in words): concentrations 0, 1, 10, 100 μM
SARS-CoV-2 3CL^pro [2] = target: T1, SARS-CoV-2 3CL^pro; test: Intact protein molecular weight analysis by mass spectrometry; assay type: binding; conditions: 8.4 μM protease, 90 μM compound, 30 min at 37 °C
SARS-CoV-2 3CL^pro [3] = target: T1, SARS-CoV-2 3CL^pro; conditions: incubation 5-40 min at 37 °C; kobs = (k inact·[I])/(K I + [I])
SARS-CoV-2 3CL^pro [4] = target: T1, SARS-CoV-2 3CL^pro; test: biochemical; conditions: IC50 against SARS-CoV-2 3CL^pro, incubation 3 min

SMILES | IC50 (SARS-CoV-2 3CL^pro [1]) [µM] | inhibitory activity against SARS-CoV-2 3CL^pro (in words) (SARS-CoV-2 3CL^pro [1]) | other results
O=C1C=CC(=O)c2c(O)cccc21 [Entry 6, 5-Hydroxy-1,4-naphthoquinone] | 4.11 ± 0.24 |  | 
CC1=CC(=O)c2ccccc2C1=O [Entry 1, 2-Methyl-1,4-naphthoquinone (vitamin K3), reference compound] |  |  | proteins bound with one compound (SARS-CoV-2 3CL^pro [2]): 55%; proteins bound with two compounds (SARS-CoV-2 3CL^pro [2]): about 15%; proteins covalently bound (total) (SARS-CoV-2 3CL^pro [2]): about 70%; K I (inhibition constant) (SARS-CoV-2 3CL^pro [3]): 112.2 µM
O=NN(CCCl)C(=O)NC1CCCCC1 [Lomustine, reference compound] | 5.86 |  | 
CC1=C(C/C=C(\C)CCC[C@H](C)CCC[C@H](C)CCCC(C)C)C(=O)c2ccccc2C1=O [Vitamin K1, reference compound] |  | no inhibition at the high and middle concentration | 
N=C(N)c1ccc2cc(OC(=O)c3ccc(N=C(N)N)cc3)ccc2c1 [Nafamostat Mesylate, reference compound] |  |  | remaining activity at 100 µM (SARS-CoV-2 3CL^pro [1]; read-out: residual activity of the protease): ~60%
NC1=C(Cl)C(=O)c2ccccc2C1=O [Entry 5, 2-Amino-3-chloro-1,4-naphthoquinone] | > 100 | almost lose their inhibitory activities | 
O=C1C=C(Cl)C(=O)c2ccccc21 [Entry 3, 2-Chloro-1,4-naphthoquinone] | 1.92 ± 0.49 |  | 
CC1=CC(=O)c2c(O)cccc2C1=O [Entry 8, 2-Methyl-5-hydroxy-1,4-naphthoquinone] | 1.32 ± 0.33 |  | 
O=C1C=C(O)C(=O)c2ccccc21 [Entry 4, 2-Hydroxy-1,4-naphthoquinone] | > 100 | almost lose their inhibitory activities | 
O=C1C=CC(=O)c2c(O)ccc(O)c21 [Entry 7, 5,8-Dihydroxy-1,4-naphthoquinone] | 0.49 ± 0.11 |  | times higher inhibitory activity than Vitamin K3 (SARS-CoV-2 3CL^pro [1]; ratio of IC50 values against SARS-CoV-2 3CL^pro): 9.8 times; proteins bound with one compound (SARS-CoV-2 3CL^pro [2]): 80%; proteins bound with two compounds (SARS-CoV-2 3CL^pro [2]): about 10%; proteins covalently bound (total) (SARS-CoV-2 3CL^pro [2]): about 90%; K I (inhibition constant) (SARS-CoV-2 3CL^pro [3]): 3.05 µM; IC50 (SARS-CoV-2 3CL^pro [4]): 0.79 µM
CC(=O)Oc1cc(C)c(OC(C)=O)c2ccccc12 [Vitamin K4, reference compound] |  | lost its inhibitory activity | 
COc1cc(C(=O)NS(=O)(=O)c2ccccc2C)ccc1Cc1cn(C)c2ccc(NC(=O)OC3CCCC3)cc12 [Zafirlukast, reference compound] | 46.7 |  | 
O=C1C=CC(=O)c2ccccc21 [Entry 2, 1,4-Naphthoquinone] | 0.69 ± 0.13 |  | 
